Experiments:
Type in all cases: cell-based, human
RPMI-8226 = experiment: NCI-60 five-dose assay (leukemia); conditions: 48 h, SRB; for GI50 / CC50: Homo sapiens; for CC50: read-out: LC50 (the source's name)
K-562 = experiment: NCI-60 five-dose assay (leukemia); conditions: SRB; for TGI: 48 h; for GI50 / LC50: Homo sapiens, K562, 48 h
786-0 [1] = experiment: NCI-60 five-dose assay (renal cancer); conditions: 48 h, SRB; for GI50 / LC50: Homo sapiens
786-0 [2] = experiment: NCI-60 one-dose screen (renal cancer); conditions: 10 µM single dose; for GP (growth percentage): 48 h
Description: (§1) The obtained quinolinequinones were submitted to NCI, Bethesda, USA, and, as per standard protocol of NCI, all compounds were evaluated for their antiproliferative activity at single-dose assay (10 µM concentration in DMSO) on a panel of 60 cancer cell lines derived from leukemia, non-small-cell lung, colon, CNS, melanoma, ovarian, renal, prostate, and breast, as per protocol. Tested compounds were added to the microtiter culture plates followed by incubation for 48 h at 37 °C. Sulforhodamine B (SRB), a protein-binding dye, is used for endpoint determination. The percent of the growth of the treated cells was determined in comparison to the untreated control cells and the results of each tested compound were reported. Data from one-dose experiments pertain to the percentage growth at 10 μM [16, 17, 18].

UO-31 = experiment: NCI-60 one-dose screen (renal cancer); conditions: 10 µM single dose, 48 h
Description: as §1

ACHN = experiment: NCI-60 one-dose screen (renal cancer); conditions: 10 µM single dose, 48 h
Description: as §1

TK-10 [3] = experiment: NCI-60 one-dose screen (renal cancer); conditions: 10 µM single dose, 48 h
Description: as §1

A498 = experiment: NCI-60 one-dose screen (renal cancer); conditions: 10 µM single dose, 48 h
Description: as §1

SN12C = experiment: NCI-60 one-dose screen (renal cancer); conditions: 10 µM single dose, 48 h
Description: as §1

HOP-92 = experiment: NCI-60 five-dose assay (non-small cell lung cancer); conditions: 48 h, SRB; for GI50 / LC50 (50% lethal concentration): Homo sapiens
OVCAR-4 [4] = experiment: NCI-60 five-dose assay (ovarian cancer); conditions: 48 h, SRB; for GI50 / LC50 (concentration killing 50% of cells): Homo sapiens
MCF7 = experiment: NCI-60 five-dose assay (breast cancer); conditions: 48 h, SRB; for GI50 / LC50: Homo sapiens
NCI-H522 = experiment: NCI-60 five-dose assay (non-small cell lung cancer); conditions: 48 h, SRB; for GI50 / LC50: Homo sapiens
BT-549 = experiment: NCI-60 five-dose assay (breast cancer); conditions: 48 h, SRB; for GI50 / LC50 (concentration giving 50% net cell kill): Homo sapiens
TK-10 [5] = experiment: NCI-60 five-dose assay (renal cancer); conditions: 48 h, SRB; for GI50 / LC50 (concentration killing 50% of starting cells): Homo sapiens
M14 = experiment: NCI-60 five-dose assay (melanoma); conditions: 48 h, SRB; for GI50 / LC50: Homo sapiens
CAKI-1 = experiment: NCI-60 five-dose assay (renal cancer); conditions: 48 h, SRB; for GI50 / LC50 (lethal concentration, 50% net cell kill): Homo sapiens
NCI/ADR-RES = experiment: NCI-60 one-dose screen (ovarian cancer); conditions: 10 µM single dose, 48 h
Description: as §1

SK-OV-3 = experiment: NCI-60 one-dose screen (ovarian cancer); conditions: 10 µM single dose, 48 h
Description: as §1

OVCAR-5 = experiment: NCI-60 one-dose screen (ovarian cancer); conditions: 10 µM single dose; for GP (growth percentage): 48 h
Description: as §1

OVCAR-4 [6] = experiment: NCI-60 one-dose screen (ovarian cancer); conditions: 10 µM single dose, 48 h
Description: as §1

OVCAR-8 [7] = experiment: NCI-60 one-dose screen (ovarian cancer); conditions: 10 µM single dose; for GP (growth percentage): 48 h
Description: as §1

IGROV1 = experiment: NCI-60 one-dose screen (ovarian cancer); conditions: 10 µM single dose, 48 h
Description: as §1

CCRF-CEM = experiment: NCI-60 five-dose assay (leukemia); conditions: 48 h, SRB; for GI50 / LC50 (concentration killing 50% of cells): Homo sapiens
OVCAR-8 [8] = experiment: NCI-60 five-dose assay (ovarian cancer); conditions: 48 h, SRB; for GI50 / CC50: Homo sapiens; for CC50: read-out: LC50 (the source's name)
DU-145 = experiment: NCI-60 five-dose assay (prostate cancer); conditions: 48 h, SRB; for GI50 / CC50: Homo sapiens; for CC50: read-out: LC50 (the source's name)
UACC-62 = experiment: NCI-60 one-dose screen (melanoma); conditions: 10 µM single dose, 48 h
Description: as §1

MDA-MB-435 = experiment: NCI-60 one-dose screen (melanoma); conditions: 10 µM single dose, 48 h
Description: as §1

MALME-3M = experiment: NCI-60 one-dose screen (melanoma); conditions: 10 µM single dose, 48 h
Description: as §1

SK-MEL-28 = experiment: NCI-60 one-dose screen (melanoma); conditions: 10 µM single dose; for GP (growth percentage): 48 h
Description: as §1

SK-MEL-5 = experiment: NCI-60 one-dose screen (melanoma); conditions: 10 µM single dose, 48 h
Description: as §1

LOX IMVI = experiment: NCI-60 one-dose screen (melanoma); conditions: 10 µM single dose, 48 h
Description: as §1

SK-MEL-2 = experiment: NCI-60 one-dose screen (melanoma); conditions: 10 µM single dose; for GP (growth percentage): 48 h
Description: as §1

UACC-257 = experiment: NCI-60 one-dose screen (melanoma); conditions: 10 µM single dose, 48 h
Description: as §1

SF-268 = experiment: NCI-60 five-dose assay (CNS cancer); conditions: 48 h, SRB; for GI50 / LC50 (concentration killing 50% of cells): Homo sapiens
MDA-MB-468 = experiment: NCI-60 five-dose assay (breast cancer); conditions: 48 h, SRB; for GI50 / LC50: Homo sapiens
NCI-H226 = experiment: NCI-60 five-dose assay (non-small cell lung cancer); conditions: 48 h, SRB; for GI50 / LC50: Homo sapiens
HOP-62 = experiment: as above; conditions: 48 h, SRB; for GI50 / LC50 (concentration killing 50% of cells): Homo sapiens

## COc1cc(NC2=C(Cl)C(=O)c3nc(C)ccc3C2=O)cc(OC)c1 [AQQ5]
RPMI-8226
  TGI: 5.19 µM
  GI50: 1790 nM
  CC50: > 100 µM
K-562
  TGI: >100 µM
  GI50: 381 nM
  LC50: > 100 µM
786-0 [1]
  TGI: 2.88 µM
  GI50: 1520 nM
  LC50: 5.44 µM
786-0 [2]
  GP (growth percentage): −59.47%
UO-31
  GP (growth percentage): −94.65%
ACHN
  GP (growth percentage): −99.62%
TK-10 [3]
  GP (growth percentage): −50.07%
A498
  GP (growth percentage): 71.10%
SN12C
  GP (growth percentage): −63.27%
HOP-92
  TGI: 3.17 µM
  GI50: 1730 nM
  LC50 (50% lethal concentration): 5.83 µM
OVCAR-4 [4]
  TGI: 2.82 µM
  GI50: 1400 nM
  LC50 (concentration killing 50% of cells): 5.66 µM
MCF7
  TGI: 5.33 µM
  GI50: 1820 nM
  LC50: > 100 µM
NCI-H522
  TGI: 3.06 µM
  GI50: 1560 nM
  LC50: 6.02 µM
BT-549
  TGI: 3.40 µM
  GI50: 1970 nM
  LC50 (concentration giving 50% net cell kill): 5.87 µM
TK-10 [5]
  TGI: 3.78 µM
  GI50: 2320 nM
  LC50 (concentration killing 50% of starting cells): 6.15 µM
M14
  TGI: 3.09 µM
  GI50: 1690 nM
  LC50: 5.66 µM
CAKI-1
  TGI: 3.15 µM
  GI50: 1760 nM
  LC50 (lethal concentration, 50% net cell kill): 5.65 µM
NCI/ADR-RES
  GP (growth percentage): −1.26%
SK-OV-3
  GP (growth percentage): 93.82%
OVCAR-5
  GP (growth percentage): 22.00%
OVCAR-5; Homo sapiens
  inhibition at 10 µM: 78%
OVCAR-4 [6]
  GP (growth percentage): −93.28%
OVCAR-8 [7]
  GP (growth percentage): −0.82%
IGROV1
  GP (growth percentage): −23.13%
CCRF-CEM
  GI50: 2230 nM
  LC50 (concentration killing 50% of cells): > 100 µM
OVCAR-8 [8]
  TGI: 3.28 µM
  GI50: 1640 nM
  CC50: 6.56 µM
DU-145
  TGI: 3.55 µM
  GI50: 1840 nM
  CC50: 6.83 µM
UACC-62
  GP (growth percentage): −43.56%
MDA-MB-435
  GP (growth percentage): −87.43%
MALME-3M
  GP (growth percentage): −89.37%
SK-MEL-28
  GP (growth percentage): −73.06%
SK-MEL-5
  GP (growth percentage): −74.93%
LOX IMVI
  GP (growth percentage): −82.62%
SK-MEL-2
  GP (growth percentage): 5.03%
SK-MEL-2; Homo sapiens
  inhibition at 10 µM: 95%
UACC-257
  GP (growth percentage): −92.05%
SF-268
  TGI: 14.4 µM
  GI50: 3250 nM
  LC50 (concentration killing 50% of cells): 72.7 µM
MDA-MB-468
  TGI: 2.57 µM
  GI50: 1230 nM
  LC50: 5.37 µM
NCI-H226
  TGI: 8.35 µM
  GI50: 2820 nM
  LC50: 46.1 µM
HOP-62
  TGI: 14.1 µM
  GI50: 4260 nM
  LC50 (concentration killing 50% of cells): 37.7 µM

## CCOc1ccc(NC2=C(Cl)C(=O)c3nc(C)ccc3C2=O)cc1 [AQQ3]
RPMI-8226
  TGI: 5.33 µM
  GI50: 1670 nM
  CC50: > 100 µM
K-562
  TGI: >100 µM
  GI50: 1170 nM
  LC50: > 100 µM
786-0 [1]
  TGI: 3.19 µM
  GI50: 1720 nM
  LC50: 5.89 µM
786-0 [2]
  GP (growth percentage): 8.39%
786-0 [2]; Homo sapiens
  inhibition at 10 µM: 91.6%
UO-31
  GP (growth percentage): −65.05%
ACHN
  GP (growth percentage): −98.42%
TK-10 [3]
  GP (growth percentage): 121.08%
A498
  GP (growth percentage): 100.96%
SN12C
  GP (growth percentage): −57.33%
HOP-92
  TGI: 3.51 µM
  GI50: 2010 nM
  LC50 (50% lethal concentration): 6.12 µM
OVCAR-4 [4]
  TGI: 2.37 µM
  GI50: 1130 nM
  LC50 (concentration killing 50% of cells): 4.97 µM
MCF7
  TGI: 3.82 µM
  GI50: 1540 nM
  LC50: 9.44 µM
NCI-H522
  TGI: 3.22 µM
  GI50: 1750 nM
  LC50: 5.94 µM
BT-549
  TGI: 2.80 µM
  GI50: 1430 nM
  LC50 (concentration giving 50% net cell kill): 5.49 µM
TK-10 [5]
  TGI: 3.77 µM
  GI50: 2300 nM
  LC50 (concentration killing 50% of starting cells): 6.18 µM
M14
  TGI: 3.23 µM
  GI50: 1680 nM
  LC50: 6.21 µM
CAKI-1
  TGI: 2.97 µM
  GI50: 1600 nM
  LC50 (lethal concentration, 50% net cell kill): 5.51 µM
NCI/ADR-RES
  GP (growth percentage): −15.63%
SK-OV-3
  GP (growth percentage): 79.78%
OVCAR-5
  GP (growth percentage): 54.83%
OVCAR-4 [6]
  GP (growth percentage): −97.52%
OVCAR-8 [7]
  GP (growth percentage): 1.03%
OVCAR-8 [7]; Homo sapiens
  inhibition at 10 µM: 99%
IGROV1
  GP (growth percentage): −82.43%
CCRF-CEM
  TGI: >100 µM
  GI50: 2110 nM
  LC50 (concentration killing 50% of cells): > 100 µM
OVCAR-8 [8]
  TGI: 3.01 µM
  GI50: 1570 nM
  CC50: 5.77 µM
DU-145
  TGI: 3.13 µM
  GI50: 1720 nM
  CC50: 5.68 µM
UACC-62
  GP (growth percentage): −43.31%
MDA-MB-435
  GP (growth percentage): −83.74%
MALME-3M
  GP (growth percentage): −90.58%
SK-MEL-28
  GP (growth percentage): 8.93%
SK-MEL-28; Homo sapiens
  inhibition at 10 µM: 91.1%
SK-MEL-5
  GP (growth percentage): −98.64%
LOX IMVI
  GP (growth percentage): −76.37%
SK-MEL-2
  GP (growth percentage): −49.77%
UACC-257
  GP (growth percentage): −89.19%
SF-268
  TGI: 3.09 µM
  GI50: 1550 nM
  LC50 (concentration killing 50% of cells): 6.14 µM
MDA-MB-468
  TGI: 2.92 µM
  GI50: 1490 nM
  LC50: 5.75 µM
NCI-H226
  TGI: 4.52 µM
  GI50: 1840 nM
  LC50: > 100 µM
HOP-62
  TGI: 3.23 µM
  GI50: 1740 nM
  LC50 (concentration killing 50% of cells): 6.01 µM

Reference: publication PMC11200585, “Prospects for Prostate Cancer Chemotherapy: Cytotoxic Evaluation and Mechanistic Insights of Quinolinequinones with ADME/PK Profile” (Biomedicines, 2024)
